Reference: patent US20260069606A1, “Oxidative Stress and Diabetes Treatment with Cobinamide” (The Regents of the University of California, priority 2022, published 2026)
“And” between values parts separate entries of the source, which are not always exact repeats. Equal entries are not always repeated. Where two headings read alike, the source gives them in different places.

What was measured:
[1] = system: Jun N-terminal kinase (JNK) phosphorylation in H9c2 cells; experiment: H2O2-induced JNK phosphorylation, immunoblotting; assay type: cell-based, rat; conditions: for JNK phosphorylation in H2O2-treated cells: H9c2, 100 μM H2O2 30 min, drugs at 100 μM
Text: (§1) FIGS. 3A-3H. […] FIGS. 3A-3B. […] FIG. 3A. […] FIG. 3B. […] FIGS. 3C-3D. […] FIG. 3D. […] FIGS. 3E-3F. […] FIG. 3E. Representative blots are shown. […] FIG. 3F. […] FIG. 3G. […] FIG. 3H.

[2] = Reaction with hydrogen peroxide, H2O2-specific electrode; assay type: biochemical
Description: (§2) FIGS. 2A-2F. Cobinamide Functions as a Catalase Mimetic and Reacts with Peroxynitrite. […]. Hydrogen peroxide (final concentration 50 μM) was added to solutions containing increasing concentrations of Chi(III) (FIG. 2A) or Chi(II) (FIG. 2C), and the H2O2 concentration was measured over time using a H2O2-specific electrode. The log of the velocity in the presence of Chi(III) (FIG. 2B) or Chi(II) (v) (FIG. 2D) over the velocity in their absence (Vo) is plotted against the log of their concentrations at 20 min over their concentrations at zero time. These plots yield a reaction order with respect to Chi(III) and Cbi(II) of 0.7. The experiments were repeated three times with similar results. Dotted lines show 95% confidence intervals. FIG. 2E. […] The Chi(III) spectra are slightly different from those shown in FIG. 1G because at pH 11, dihydroxo-cobinamide is generated, whereas at pH 7.1, aquohydroxo-cobinamide is the predominant species. The spectra of aquohydroxo- and dihydroxo-cobinamide are known to be different^65. FIG. 2F. Varying concentrations of Chi(II) from 1 to 10 μM were mixed with 10 μM peroxynitrite in a stopped-flow instrument, and absorption at 315 nm was monitored for 0.5 sec. The results for 5 μM Cbi(II) are shown; red circles are the observed data, and the black line is a two-phase non-linear regression curve generated by Prism 7.04 software. […] The experiment was repeated three times with similar results. Dotted lines show 95% confidence intervals.
(§3) Table I. Reaction Rates of Cobinamide (Cbi), Cobalamin, Imisopasem, and MnTBAP with Reactive Oxygen and Nitrogen Species. Reactions of the indicated compounds with O2·^−, ONOO^−, and ·NO are all second order reactions with rate constants in units of M^−1 s^−1. The reactions of Cbi(III) and Cbi(II) with H2O2 are third order with rate constant units of M^−2 s^−1. Chi(II) and cobalamin(II) bind nitric oxide, so a Ka is shown in units of M^−1. For the new data presented in this study, rate constants were measured for O2·^− using a hypoxanthine-xanthine oxidase-cytochrome c system, for H2O2 using a H2O2-specific sensor (World Precision Instruments), and for ONOO^− using a stopped-flow instrument. Published rate constants for Cu/Zn and Mn superoxide dismutases (SOD) and catalase are shown for reference.^a,b Letters and numbers in parenthesis refer to footnotes and references, respectively.
Both Cbi(III) and Chi(II) react with H2O2, and the reaction was essentially first order with respect to Cbi(III) and Cbi(II) (FIG. 2A-D), and second order with respect to H2O2 for both cobinamide species. […]

[3] = even on exposure to air
Description: H9c2 cells were incubated for 30 min with vehicle, 2.5 μM cobinamide, or 5 μM rotenone, the latter in the absence or presence of 2.5 μM cobinamide, imisopasem, MnTBAP, or cobalamin; 5 μM MitoSOX was added during the last 10 min. The cells were incubated with 1 mg/ml DAPI for 3 min to counterstain nuclei, and then visualized under a fluorescence microscope. […] Equal-sized representative areas for each condition are shown for MitoSOX staining (red fluorescence) and the same area showing merged MitoSOX and DAPI staining. […] The amount of red fluorescence was quantified by Image J analysis. Data are the mean±SD of three independent experiments; in each experiment two separate equal-sized areas were analyzed containing ˜75 cells per area. […] H9c2 cells were incubated for 10 min with 10 μM JC-1, washed once with PBS, and then incubated for 30 min with vehicle, 2.5 μM cobinamide, or 5 μM rotenone in the absence or presence of 2.5 μM of the indicated drugs as described in Panels A, B. FIG. 3C. Cells were visualized under a fluorescence microscope and equal-sized representative areas of each condition are shown, with red and green fluorescence shown for the same area. […] The amount of red and green fluorescence was quantified by Image J analysis and the red to green ratio was calculated. The slides were analyzed by an operator who was blinded to the specific conditions. Data are the mean±SD of three independent experiments; in each experiment two separate equal-sized areas were analyzed containing ˜75 cells per area. […] Blots from four independent experiments were analyzed by densitometric scanning (Li-Cor Odyssey software) in a range where band intensity was linear. The ratio of the pJNK band to GAPDH was calculated, and the results normalized to control untreated cells. […] The UV-visible spectrum of Chi(III) in 50 mM potassium phosphate buffer, pH 7.4 was recorded before (black line) and immediately after adding a three-fold molar excess of ascorbate (blue line), cysteine (teal line), or reduced glutathione (GSH, pink line). […]

[4] = literature values, cited from earlier work; for Rate constant, reaction with nitric oxide (·NO), published: second order
[5] = Reaction with peroxynitrite, stopped-flow; assay type: biochemical
Description: as §2
as §3, with “Chi(II) and cobalamin(II) bind nitric oxide, so a Ka is shown in units of M^−1.” left out, “Published rate constants for Cu/Zn and Mn superoxide dismutases (SOD) and catalase are shown for reference.^a,b Letters and numbers in parenthesis refer to footnotes and references, respectively.” left out

[6] = Reaction with superoxide, hypoxanthine-xanthine oxidase-cytochrome c reduction system; assay type: biochemical; conditions: for Apparent rate constant, reaction with superoxide (O2·^−): second order, hypoxanthine-xanthine oxidase-cytochrome c system, new data of this study
Description: FIGS. 1A-1G. Cobinamide Functions as a Superoxide Dismutase Mimetic. FIGS. 1A-1B. Chemical structures of aquohydroxo-cobinamide (FIG. 1A) and hydroxo-cobalamin (FIG. 1B). FIGS. 1C, 1E. Increasing concentrations of Chi(III) (FIG. 1C) or Chi(II) (FIG. 1E) were incubated in a hypoxanthine-xanthine oxidase-cytochrome c-catalase system for measuring O2·^−, with the change in absorbance at 550 nm (ΔAbs) plotted versus time. A no substrate (no hypoxanthine) control was included. FIGS. 1D, 1F. The calculated rate of change of absorbance at 550 nm in the absence of Chi(III) or Chi(II) (Vo) divided by the calculated rate in their presence (v) is plotted against the Chi(III) (FIG. 1D) or Chi(II) (FIG. 1F) concentration, respectively. The slope of the fitted line was used to calculate the apparent rate constant according to the following equation: kCbi=slope×kcytochrome c×[cytochrome c], where kcytochrome c=1.4×10^6 M^−1 s^−1 and [cytochrome c]=70 μM^70. The data shown are the mean of duplicate samples from one experiment, with similar results found in two additional experiments. Dotted lines show 95% confidence intervals. FIG. 1G. A 20 μM solution of Chi(III) in DMSO was scanned from 280 to 600 nm yielding the spectrum shown as a black line. An equimolar amount of […] (KO2) dissolved in dimethyl sulfoxide (DMSO) was added and the solution was scanned immediately, yielding the grey line. […] The experiment was conducted three times with identical results.
as §3
The reaction of cobinamide with O2·^− was studied in two different systems, generating O2·^− using a hypoxanthine-xanthine oxidase system.
The first system contained 100 μM hypoxanthine and 0.1 unit xanthine oxidase in 20 mM sodium phosphate buffer, pH 7.1. The amount of O2·^− was measured by following reduction of ferric-cytochrome c (70 μM) at 550 nm as described previously^65. Catalase was included (32 units per sample), because xanthine oxidase generates both O2·^− and H2O2, and the latter can re-oxidize the ferro-cytochrome c product^34,66. The reaction was followed for 10 min. A no substrate blank lacking hypoxanthine was included.
In both systems, the experiments were conducted in the absence and presence of the indicated concentrations of Cbi(III) or Chi(II) 65.
Catalase was included in the reaction mixture, because the hypoxanthine-xanthine oxidase system also generates H2O2 and the latter can oxidize the ferro-cytochrome c product back to ferric-cytochrome c, thereby interfering with the kinetic measurement^34.

[7] = system: H9c2 cells; experiment: Mitochondrial membrane potential, JC-1 red to green fluorescence; assay type: cell-based, rat; conditions: H9c2, 5 μM rotenone 30 min, drugs at 2.5 μM
Description: as §1
(§4) The cells were then washed once with PBS, placed back in the DMEM experimental medium, and incubated with the indicated drugs for 30 min. At the end of the incubation period, nuclei of both the MitoSOX Red- and JC-1-treated cells were stained with […] 4′,6-diamidino-2-phenyl-indole (DAPI) for 3 min, washed once with PBS, and returned to the DMEM experimental medium. The cover slips were removed from the wells, mounted in the DMEM experimental medium, and red (MitoSOX Red and JC-1 aggregates), green (JC-1 monomers), and blue (DAPI) fluorescence intensity was assessed using a Keyence BZ-X700 fluorescence microscope at the following paired excitation/emission wavelengths, respectively: 560/630, 490/525, and 360/460 nm.
Increased mitochondrial O2·^− by rotenone would be expected to reduce the mitochondrial membrane potential (ΔΨm), due in part to activation of uncoupling proteins^39. […] Rotenone caused an almost complete loss of red fluorescence and a striking increase in green fluorescence in the cells, indicating a marked decrease in ΔΨm (FIGS. 3C-3D).

[8] = literature values; not strictly comparable with third-order constants; cited from earlier work
[9] = system: H9c2 rat embryonal cardiomyocytes; experiment: Mitochondrial superoxide content, MitoSOX Red fluorescence; assay type: cell-based; conditions: H9c2, 5 μM rotenone 30 min, drugs at 2.5 μM
Description: as §1
H9c2 cells were plated on glass cover slips in 24 well dishes, and 16 h later the medium was changed to phenol red-free DMEM supplemented with 20 mM Hepes, 0.1% fetal bovine serum, and 0.5% bovine serum albumin. […] MitoSOX Red is a dihydroethidium derivative containing triphenyl-phosphonium, which localizes it to respiring mitochondria. Its reaction with O2·^− yields 2-hydroxy-mitoethidium (2-OH-Mito-E″), whereas its reaction with other oxidative species yields mitoethidium (Mito-E^+)^67. These two oxidative derivatives have overlapping fluorescence spectra, but they can be distinguished by high performance liquid chromatography (HPLC)^68. Rotenone increased 2-OH-Mito-E^+ about two-fold, without increasing Mito-E^+. Thus, any increased fluorescence observed on treating cells with rotenone could be ascribed to an increase in 2-OH-Mito-E^+, and decreased fluorescence by an anti-oxidant in rotenone-treated cells was likely from a decrease in 2-OH-Mito-E^+.
as §4
To assess if cobinamide reduces oxidative stress in cells and to compare its […] efficacy to that of cobalamin, imisopasem, and MnTBAP, several sets of experiments were performed. First, whether cobinamide reduces mitochondrial-generated O2·^− was evaluated using the fluorescent probe MitoSOX Red. H9c2 rat embryonal cardiomyocytes were treated with rotenone, an inhibitor of complex I, to increase mitochondrial O2·^−. […] Monitoring the UV-visible spectrum of cobinamide is a sensitive means to assess ligand binding^38.

[10] = system: COS-7 cells
Description: as §1
Finally, whether cobinamide could alleviate the effects of oxidative stress induced by yet another mechanism in a different cell type was tested using paraquat-treated COS-7 cells. Paraquat generates O2·^− through a redox cycling mechanism and increases both intracellular O2·^− and H2O2^42.

[11] = second order; literature values; cited from earlier work
[12] = system: D. melanogaster; experiment: Survival of fruit flies during paraquat poisoning; assay type: in vivo
Description: The number of live flies was counted each day for 7 d. The experiment was repeated seven times, for a total of 70 flies per condition. The percent surviving flies was calculated; error bars represent standard deviations and are shown in one direction only for sake of clarity. […] Chi, cobinamide in Panel A and histidyl-cobinamide in Panels B-K; Imp, imisopasem; MnTP, MnTBAP; CbL, cobalamin; DNPH, 2,4-dinitrophenylhydrazine; ND, non-diabetic; D, diabetic; Veh, vehicle.
To test cobinamide in a whole animal, D. melanogaster was selected for initial studies, and oxidative stressed was increased in the files by administering paraquat in their food. Cobinamide was again compared to imisopasem, MnTBAP, and hydroxocobalamin, all administered in food.

[13] = second order; literature values; cited from earlier work; remark: listed apart in the source

C/C1=C2/[N-][C@H]([C@H](CC(N)=O)[C@@]2(C)CCC(=O)NC[C@@H](C)O)[C@]2(C)N=C(/C(C)=C3N=C(/C=C4N=C1[C@@H](CCC(N)=O)C\4(C)C)[C@@H](CCC(N)=O)[C@]\3(C)CC(N)=O)[C@@H](CCC(N)=O)[C@]2(C)CC(N)=O.[Co] [Cbi(II)]
JNK phosphorylation in H2O2-treated cells [1]: reduced JNK phosphorylation to a level that was indistinguishable from vehicle-treated cells
JNK phosphorylation or total cellular JNK in the absence of H2O2 ([1]; H9c2, drug alone): neither Cbi(III), Cbi(II) nor the other three drugs affected JNK phosphorylation
Reaction order with respect to the cobinamide species in the reaction with H2O2 ([2]; 50 μM H2O2): 0.7
Apparent rate constant, reaction with hydrogen peroxide (H2O2) ([2]; third order, H2O2-specific sensor, new data of this study): 3.7 × 10^4 M^−2 s^−1
Persistence of the reduced state [3]: remains in the reduced state for several hours
Ka, binding of nitric oxide (·NO), published [4]: Ka: 1.3 × 10^10 (51) M^−1
Fold higher ONOO^− rate constant than MnTBAP ([5]; compared with published MnTBAP value): > 50 fold
Fold higher ONOO^− rate constant than cobalamin(II) ([5]; compared with published cobalamin(II) value): more than 10 fold
Apparent rate constant, reaction with peroxynitrite (ONOO^−) ([5]; second order, stopped-flow, 10 μM peroxynitrite, new data of this study): 6.34×10^6 M^−1 s^−1 and 6.3 × 10^6 (^c) ^ M^−1 s^−1
Apparent rate constants, reaction with O2·^− ([6]; hypoxanthine-xanthine oxidase-cytochrome c reduction system, catalase included, exponent shared in the sentence): 1.92e+08 M⁻¹ s⁻¹
Apparent rate constant, reaction with superoxide (O2·^−) [6]: 1.9e+08 M⁻¹ s⁻¹

[Cl-].[Cl-].[Mn+2].c1cc2nc(c1)CN[C@@H]1CCCC[C@H]1NCCN[C@@H]1CCCC[C@H]1NC2 [Imisopasem, imisopasem manganese]
JNK phosphorylation in H2O2-treated cells [1]: small non-significant effects
JC-1 red to green fluorescence ratio (ΔΨm) in rotenone-treated cells [7]: modest degrees of recovery
Rate constant, reaction with hydrogen peroxide (H2O2), published [8]: 8.2
MitoSOX red fluorescence in rotenone-treated cells [9]: reduced the fluorescent signal substantially
Rate constant, reaction with nitric oxide (·NO), published [4]: No activity (26)
Effect on cell growth of paraquat-treated cells ([10]; COS-7, 1 mM paraquat 3 h, 100 μM drug, counted 48 h later): neither imisopasem nor MnTBAP had an effect
Rate constant, reaction with superoxide (O2·^−), published [11]: 1.6e+07 M⁻¹ s⁻¹
Effect on mortality of paraquat-exposed flies ([12]; 20 mM paraquat with 0.8 mM drug in food, over 7 d): no significant effect
Rate constant, reaction with peroxynitrite (ONOO^−), published [13]: No activity (26)

hydroxo-cobalamin
JNK phosphorylation in H2O2-treated cells [1]: no effect
JC-1 red to green fluorescence ratio (ΔΨm) in rotenone-treated cells [7]: modest degrees of recovery
Rate constant, reaction with hydrogen peroxide (H2O2), published [8]: 4.5 × 10^6
MitoSOX red fluorescence in rotenone-treated cells [9]: reduced the fluorescent signal substantially
Rate constant, reaction with nitric oxide (·NO), published [4]: No activity (51, 71)
Effect on cell growth of paraquat-treated cells [10]: improved cell growth
Apparent rate constant, reaction with superoxide (O2·^−) [6]: 9.4e+06 M⁻¹ s⁻¹
Effect on mortality of paraquat-exposed flies ([12]; in vivo): no significant effect
